The values below come from US20080064053A1, “Genotoxicity Testing” (priority 2003, published 2008).

The subject of data set [1] is RAD54 promoter-yEGFP reporter. Description: Fluorescence assay with intact yeast cells in cuvettes, RAD54-GFP reporter plasmid pWDH445 and rearranged derivatives. It is filed as cell-based, Saccharomyces cerevisiae. The settings on record: 0.005% MMS, 15 hours. On the procedure: Starter cultures were initiated by inoculating 1.5 ml of F1 medium (plus appropriate nutritional supplements and 2% glucose) in sterile 15 ml polythene centrifuge tubes with small portions of colonies, picked by inoculating loop from stock plates. These starter cultures were grown for up to 24 hours at 30° C. with shaking (at 120 rpm) and were used as the source of inoculum for the assay cultures. Cells were inoculated into 1.5 ml F1 cultures in 15 ml polythene centrifuge tubes to give an initial OD600 nm of ˜0.1 (typically a 10-15 μl inoculum per 1.5 ml culture). The lids of the tubes were left one-quarter unscrewed, but held in place by masking tape, to ensure maximum oxygenation for GFP maturation. Half of the tubes were treated with 0.005% methyl methanesulphonate (MMS, methanesulphonic acid methyl ester) and half left as unchallenged controls. MMS was purchased as a liquid and this stock solution was taken to be 100%. […] For the measurement of intact yeast cell fluorescence of cells grown in YPD or SD, the cells were washed twice in sterile water to remove traces of autofluorescent medium and resuspended in 1.5 ml of sterile water. […] 4-window cuvettes were necessary since measurement of fluorescence emission is performed perpendicular to the path of excitation light.
Fluorescence measurements were performed with a Perkin-Elmer LS50B Fluorescence Spectrometer (Perkin-Elmer Ltd., Beaconsfield, UK). […] For the yEGFP expressing reporter, the excitation and emission wavelengths were set to 490 nm and 518 nm respectively (due to the altered fluorescence characteristics of yEGFP), with 5 nm slit widths. To account for differences in cell numbers between YPD or SD assay cultures, the OD600 nm was recorded for each cuvette. Similarly, in order to measure protein extraction efficiency, light absorption at 280 nm (OD280 nm) was measured for crude cell extracts. […] The y-axis on uncorrected fluorescence scans gives raw data in the form of machine defined fluorescence intensity (“INT”) units. […]

A further data set relates to SOS umuC. The settings on record: cited from earlier work.
Data set [2] deals with RAD54 promoter-GFP reporter (pGen001). To be noted: for GSA genotoxicity result: GenT01 yeast, overnight at 25° C., 2% DMSO diluent, no S9.
The test system of a further data set is SOS lux. To be noted: cited from earlier work.
In data set [3] the test system is RNR3 regulatory element-GFP reporter. Briefly: RNR3-GFP reporter microplate assay (pGenRNR3). It is filed as cell-based, Saccharomyces cerevisiae. To be noted: yeast test strain transformed with pGenRNR3. From the text: (§1) In addition to the RAD54 vectors described in the previous Examples, the inventors constructed an FF18984 reporter strain containing a replicative plasmid harbouring an RNR regulatory element. The vectors pGenRNR2 or pGenRNR3 are shown in FIGS. 24 and 25, respectively, and contain the upstream non-coding DNA sequence of the RNR2 gene or RNR3 gene fused to the yeast-enhanced Aequorea victoria GFP gene. A control FF18984 strain containing an identical plasmid except that 2 base pairs have been removed at the start of the GFP gene, such that no GFP is made, was also examined.
In order to test the brightness of the reporter for RNR3 constructs, similar methodology was used as for RAD54 constructs, as described in the previous Examples, but using instead pGENRNR3.

Data set [4] relates to RNR2 regulatory element-GFP reporter. Description: RNR2-GFP reporter assay (pGenRNR2), cuvette and microplate. Format: cell-based, Saccharomyces cerevisiae. The settings on record: yeast test strain transformed with pGenRNR2.
Source text: as §1
In order to test the brightness of the reporter for RNR2 constructs, similar methodology was used as for RAD54 constructs, as described in the previous Examples, but using instead pGENRNR2.
On the technique in general: A reporter such as luciferase makes a cellular process visible.

Data set [5] deals with yeast strain GenT01 (FF18984). Description: GreenScreen assay (GSA), cytotoxicity: final cell density by absorbance. To be noted: GenT01 yeast, overnight at 25° C. On the procedure: The following standard protocol was followed. A 1 mM stock of the test chemical was prepared in 2% v/v aqueous DMSO, and used to make 2 identical dilution series across the microplate and a ‘control’ (see below). To achieve this, 150 microlitres of the test chemical solution were put into 2 microplate wells. Each sample was serially diluted by transferring 75 microlitres into 75 microlitres of 2% DMSO, mixing, and then taking 75 microlitres out and into the next well. This produced 9 serial dilutions of 75 microlitres each.
75 microlitres of the yeast suspension were added to each well of the diluted chemical: GenT01 to one series and GenC01 to the second, and to appropriate standards and controls. After the plates were filled, they were sealed using either a gas permeable membrane (Breath-easy, Diversified Biotech, USA) or a plastic lid, and then incubated without shaking, overnight at 25° C.
Following overnight incubation, fluorescence and absorbance data were collected from the microplates. […] Absorbance was measured through a 620 nm filter in both instruments. […] Fluorescence data were divided by absorbance data to give ‘brightness units’, the measure of average GFP induction per cell. […] In this way, one can distinguish between a small number of highly fluorescent cells and a large number of weakly fluorescent cells. In order to correct for induced cellular autofluorescence and intrinsic compound fluorescence, the brightness values for the GenC01 strain were subtracted from those of GenT01. This makes visual assessment of the data more reliable.
The cytotoxicity threshold is set at 80% of the cell density reached by the untreated control cells.
Table 12 lists chemicals/solvents that are often used with test samples, to promote dissolution etc. […] If these chemicals are used to dissolve compound stock solutions, they should also be included in the diluent used to make the compound dilution series. […] Interference of DMSO, a free radical scavenger, in the recombinogenic properties of several oxidising agents has previously been reported.

Each structure is given as a SMILES string. Values joined by “and” are separate entries in the source; they are usually repeats but may differ in a detail not shown here. Equal entries are not always repeated. Where two headings read alike, the source gives them in different places.

For `COS(C)(=O)=O` [MMS, methyl methanesulfonate], the induction ratio in data set [1] (FF18984 cells bearing normal pWDH445) is 7.72 and 5.5; in data set [1] (FF18984 cells re-transformed with modified (rearranged) plasmid) it was 5.2; in data set [1] (original bright variant FF18984 cells carrying pWDH445), 3.27. Also, in the data set on SOS umuC, the “SOS UMUC ASSAY (M), LEC” value is 0.00015 M. In addition, the GSA genotoxicity result in data set [2] is listed as “induced”; in data set [2] (listed as Methyl methanesulfonate), “genotoxic”. In data set [2] (S9 −), the “GSA (M), lowest effective concentration (LEC)” value amounted to 9.3e-06 M. For the same molecule, the “SOS LUX ASSAY (M), LEC” value with SOS lux is 7.3e-05 M. In addition, in data set [3], the “fluorescence induction by the reporter” value is reported as “increases with increasing concentration”. In addition, in data set [4], the “brightness/fluorescence of GFP reporter” value is recorded as “induced”. Further, the GSA cytotoxicity result in data set [5] is listed as “strongly cytotoxic”.
